Experimental data: the supplement of paper PMC10307832

Tests used:
Assay in all cases: relative viability (nuclei count vs DMSO), 5 days (fraction); higher = more cells survive
[1] = compound: CC1=C(C(=NN1)C)CC2=C(C3=C(S2)N(C(=O)N(C3=O)C)CC(C)C)C(=O)N4C[C@@H](CO4)O + CS(=O)(=O)N1CCN(Cc2cc3nc(-c4cccc5[nH]ncc45)nc(N4CCOCC4)c3s2)CC1 [Pictilisib] (partner 1 µM)
Procedure, shortened: (§1)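 Lung cancer cell lines were seeded in 1536-well plates and dosed by pin tool the next day, with either a single drug or a fixed anchor-drug dose combined with five library-drug doses (not always all listed) spaced in √10 steps. Five days later, one step fixed the cells and stained their nuclei (final 0.05% Triton X-100, 1% formaldehyde, 1 ug/ml Hoechst), and nuclei were counted on 4× images. Relative viability is the nuclei count in treated wells divided by the count in vehicle wells, and each value is the median of duplicate plates.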

IDH-C35 + Phenformin = compound: Cc1ccccc1C(C(=O)NC1CCCCC1)N(C(=O)Cn1ccnc1C)c1cccc(F)c1 [IDH-C35] + N=C(N)NC(=N)NCCc1ccccc1 [Phenformin] (partner 250 µM)
Procedure, shortened: as §1

[2] = compound: CC1=C(C(=NN1)C)CC2=C(C3=C(S2)N(C(=O)N(C3=O)C)CC(C)C)C(=O)N4C[C@@H](CO4)O + NC(=O)Nc1cc(-c2cccc(F)c2)sc1C(=O)N[C@H]1CCCNC1 [AZD7762] (partner 0.2 µM)
Procedure, shortened: as §1

[3] = compound: CC1=C(C(=NN1)C)CC2=C(C3=C(S2)N(C(=O)N(C3=O)C)CC(C)C)C(=O)N4C[C@@H](CO4)O + CC(=O)Nc1cccc(-n2c(=O)n(C3CC3)c(=O)c3c(Nc4ccc(I)cc4F)n(C)c(=O)c(C)c32)c1 [Trametinib] (partner 0.02 µM)
Procedure, shortened: as §1

Cell Line	relative viability ([1]; first compound 0.0025 µM)	relative viability ([1]; first compound 0.007906 µM)	relative viability ([1]; first compound 0.025 µM)	relative viability ([1]; first compound 0.07906 µM)	relative viability ([1]; first compound 0.25 µM)	relative viability (IDH-C35 + Phenformin; first compound 0.08 µM)	relative viability (IDH-C35 + Phenformin; first compound 0.253 µM)	relative viability (IDH-C35 + Phenformin; first compound 0.8 µM)	relative viability (IDH-C35 + Phenformin; first compound 8 µM)	relative viability ([2]; first compound 0.0025 µM)	relative viability ([2]; first compound 0.007906 µM)	relative viability ([2]; first compound 0.025 µM)	relative viability ([2]; first compound 0.07906 µM)	relative viability ([2]; first compound 0.25 µM)	relative viability ([3]; first compound 0.0025 µM)	relative viability ([3]; first compound 0.007906 µM)	relative viability ([3]; first compound 0.025 µM)	relative viability ([3]; first compound 0.07906 µM)	relative viability ([3]; first compound 0.25 µM)	relative viability (IDH-C35 + Phenformin; first compound 2.53 µM)
NCI-H650	0.898	0.826	0.819	0.824	0.926	0.453	0.465	0.505	0.421	1.03	0.961	0.893	0.936	0.913	1.09	1.01	1.15	0.982	1.04	–
NCI-H1666	0.405	0.399	0.53	0.482	0.406	0.573	0.578	0.594	0.54	0.741	0.859	0.812	0.787	1.01	0.876	0.824	0.885	0.786	0.891	0.538
NCI-H2085	0.527	0.455	0.449	0.468	0.399	0.748	0.737	0.714	0.595	1.01	1.02	0.879	0.986	0.448	0.844	0.586	0.575	0.608	0.549	0.767
NCI-H1734	0.474	0.544	0.488	0.473	0.486	0.402	0.449	0.4	0.346	0.53	0.581	0.342	0.402	0.381	0.666	0.757	0.675	0.62	0.665	0.359
NCI-H2126	0.513	0.493	0.509	0.478	0.494	0.529	0.548	0.525	0.483	1.06	1.08	0.943	0.867	1.05	0.527	0.57	0.548	0.551	0.577	0.525
EMC-BAC-2	0.512	0.573	0.521	0.505	0.594	0.5	0.584	0.583	0.493	1.21	1.2	1.07	1.19	1.01	0.902	0.904	0.938	0.892	0.986	0.508
NCI-H1993	0.866	0.888	0.89	0.728	0.756	0.56	0.508	0.476	0.524	0.893	0.656	0.596	0.674	0.696	0.627	0.0091	0.553	0.641	0.522	0.555
NCI-H647	0.494	0.444	–	0.525	0.483	0.425	0.446	0.626	0.491	0.515	0.418	0.366	0.653	0.45	0.506	0.582	0.579	0.558	0.448	0.55
